# Experimental data as given in patent US7265129B2, “Anti-infective biaryl compounds” (priority 2002, dated 2007).
# Legend:
# B. cereus ATCC 11778 = assay: MIC, NCCLS broth microdilution, B. cereus; format: cell-based, Bacillus cereus
# Excerpt: (§1) It vitro biological activity data were collected for a variety of microorganisms, including Bacillus cereus (ATCC 11778), Staphylococcus aureus (ATCC 33591; ATCC 27660, a methicillin resistant strain (MRSA); ATCC 13709, a methicillin sensitive strain (MSSA)), Enterococcus faecalis (ATCC 29212), and Streptococcus pneumoniae (ATCC 49619). Additionally, antifungal activity data were collected for Candida albicans (ATCC 38247).
# (§2) Compounds according to this invention were screened for their in vitro activities against selected species of bacteria and fungi. The minimal inhibition concentration (MIC) of these compounds was determined using the National Committee for Clinical Laboratory Standards (NCCLS) broth microdilution assay in microtiter plates, as set forth in: (1) the guidelines of the National Committee for Clinical Laboratory Standards (NCCLS) Document M7-A4 (NCCLS, 1997); (2) the guidelines of the National Committee for Clinical Laboratory Standards (NCCLS) Document M11-A4 (NCCLS, 1997); and (3) the guidelines and reference method of the National Committee for Clinical Laboratory Standards (NCCLS) Document M27-T (NCCLS, 1995). For antifungal assays, the method recommended in Murray, P R., 1995 Manual of Clinical Microbiology (ASM Press, Washington, D.C.), was employed.
# C. albicans ATCC 38247 = assay: MIC, antifungal assay, C. albicans; format: cell-based, Candida albicans
# Excerpt: as §1, §2
# E. faecalis ATCC 29212 = assay: MIC, NCCLS broth microdilution, E. faecalis; format: cell-based, Enterococcus faecalis
# Excerpt: as §1, §2
# S. aureus ATCC 13709 = assay: MIC, NCCLS broth microdilution, S. aureus MSSA; format: cell-based, Staphylococcus aureus; conditions: S. aureus ATCC 13709, methicillin sensitive strain (MSSA)
# Excerpt: as §1, §2
# S. aureus ATCC 27660 = assay: MIC, NCCLS broth microdilution, S. aureus MRSA; format: cell-based, Staphylococcus aureus; conditions: S. aureus ATCC 27660, methicillin resistant strain (MRSA)
# Excerpt: as §1, §2
# S. aureus ATCC 33591 = assay: MIC, NCCLS broth microdilution, S. aureus ATCC 33591; format: cell-based, Staphylococcus aureus
# Excerpt: as §1, §2
# S. pneumoniae ATCC 49619 = assay: MIC, NCCLS broth microdilution, S. pneumoniae; format: cell-based, Streptococcus pneumoniae
# Excerpt: as §1, §2
# E. faecium ATCC 51559 = assay: MIC, E. faecium VRE; format: cell-based, Enterococcus faccium; conditions: Table C; E. faecium ATCC 51559, vancomycin resistant strain (VRE)
# Protocol: as §2
# (§3) Additionally, some compounds were screened against Enterococcus faccium (ATCC 51559, a vancomycin resistant strain (VRE)), Staphylococcus epidermidis (ATCC 12228), Streptococcus pneumoniae (ATCC 51422, a penicillin resistant strain (PRSP)), and/or Streptococcus pyogenes (ATCC 49399).
# [1] = system: S. epidermidis ATCC 12228; assay: MIC, S. epidermidis; format: cell-based, Staphylococcus epidermidis; conditions: Table C
# Protocol: as §2, §3
# [2] = MIC, Table C (organism not given); format: cell-based
# Protocol: as §2, §3
SMILES,"Minimum Inhibitory Concentration (MIC), organism A (B. cereus ATCC 11778)","Minimum Inhibitory Concentration (MIC), organism B (C. albicans ATCC 38247)","Minimum Inhibitory Concentration (MIC), organism C (E. faecalis ATCC 29212)","Minimum Inhibitory Concentration (MIC), organism D (S. aureus ATCC 13709)","Minimum Inhibitory Concentration (MIC), organism E (S. aureus ATCC 27660)","Minimum Inhibitory Concentration (MIC), organism F (S. aureus ATCC 33591)","Minimum Inhibitory Concentration (MIC), organism G (S. pneumoniae ATCC 49619)","Minimum Inhibitory Concentration (MIC), organism A (E. faecium ATCC 51559)","Minimum Inhibitory Concentration (MIC), organism B [1]","Minimum Inhibitory Concentration (MIC), organism E [2]"
COc1ccc2nc(-c3cc(NC(=O)c4cc(NC(=O)c5cc6ccccc6cn5)cn4C)cn3C)[nH]c2c1 [Compound A-4],+++ (MIC ≦ 4 μg/mL),>32 µg/mL,+++ (MIC ≦ 4 μg/mL),+++ (MIC ≦ 4 μg/mL),+++ (MIC ≦ 4 μg/mL),+++ (MIC ≦ 4 μg/mL),+++ (MIC ≦ 4 μg/mL),+++ (MIC ≦ 4 pg/mL),+++ (MIC ≦ 4 pg/mL),+++ (MIC ≦ 4 pg/mL)
Cn1cc(NC(=O)c2cc(NC(=O)c3sccc3Cl)cn2CCCN2CCOCC2)cc1-c1nc2ccccc2[nH]1 [Compound A-50],+++ (MIC ≦ 4 μg/mL),>32 µg/mL,+++ (MIC ≦ 4 μg/mL),+++ (MIC ≦ 4 μg/mL),+++ (MIC ≦ 4 μg/mL),+++ (MIC ≦ 4 μg/mL),+++ (MIC ≦ 4 μg/mL),+++ (MIC ≦ 4 pg/mL),+++ (MIC ≦ 4 pg/mL),+++ (MIC ≦ 4 pg/mL)
Cn1cc(NC(=O)c2cc3ccccc3cn2)cc1C(=O)Nc1cc(-c2nc3ccc(Cl)cc3[nH]2)n(C)c1 [Compound A-7],+++ (MIC ≦ 4 μg/mL),>32 µg/mL,+++ (MIC ≦ 4 μg/mL),+++ (MIC ≦ 4 μg/mL),+++ (MIC ≦ 4 μg/mL),+++ (MIC ≦ 4 μg/mL),+++ (MIC ≦ 4 μg/mL),+++ (MIC ≦ 4 pg/mL),+++ (MIC ≦ 4 pg/mL),+++ (MIC ≦ 4 pg/mL)
Cn1cc(NC(=O)c2cc3ccccc3cn2)cc1C(=O)Nc1cc(-c2nc3ccc(NC(=O)C(F)(F)F)cc3[nH]2)n(C)c1 [Compound A-5],+++ (MIC ≦ 4 μg/mL),>32 µg/mL,+++ (MIC ≦ 4 μg/mL),+++ (MIC ≦ 4 μg/mL),+++ (MIC ≦ 4 μg/mL),+++ (MIC ≦ 4 μg/mL),+++ (MIC ≦ 4 μg/mL),+++ (MIC ≦ 4 pg/mL),+++ (MIC ≦ 4 pg/mL),+++ (MIC ≦ 4 pg/mL)
Cn1cc(NC(=O)c2cc(NC(=O)c3sc4ccccc4c3Cl)cn2CCCN2CCCCC2)cc1-c1nc2ccccc2[nH]1 [Compound A-23],+++ (MIC ≦ 4 μg/mL),+ (12 ≦ MIC ≦ 32 μg/mL),+++ (MIC ≦ 4 μg/mL),+++ (MIC ≦ 4 μg/mL),+++ (MIC ≦ 4 μg/mL),+++ (MIC ≦ 4 μg/mL),+++ (MIC ≦ 4 μg/mL),,,
Cc1cccc2nc(-c3cc(NC(=O)c4cc(NC(=O)c5cc6ccccc6cn5)cn4C)cn3C)[nH]c12 [Compound A-3],>32 µg/mL,>32 µg/mL,>32 µg/mL,>32 µg/mL,>32 µg/mL,>32 µg/mL,>32 µg/mL,,,
Cn1cc(NC(=O)c2cc(NC(=O)c3ccc(Cl)cc3F)cn2CCCN2CCC(F)(F)CC2)cc1-c1nc2ccccc2[nH]1 [Compound A-35],+++ (MIC ≦ 4 μg/mL),>32 µg/mL,+++ (MIC ≦ 4 μg/mL),+++ (MIC ≦ 4 μg/mL),+++ (MIC ≦ 4 μg/mL),+++ (MIC ≦ 4 μg/mL),+++ (MIC ≦ 4 μg/mL),,,
Cn1cc(NC(=O)c2cc3ccccc3cn2)cc1C(=O)Nc1cc(-c2nc3ccc(NC(=O)CCN4CCOCC4)cc3[nH]2)n(C)c1 [Compound A-11],+++ (MIC ≦ 4 μg/mL),>32 µg/mL,+++ (MIC ≦ 4 μg/mL),+++ (MIC ≦ 4 μg/mL),+++ (MIC ≦ 4 μg/mL),+++ (MIC ≦ 4 μg/mL),+++ (MIC ≦ 4 μg/mL),,,
CC1CCN(CCCn2cc(NC(=O)c3sccc3Cl)cc2C(=O)Nc2cc(-c3nc4ccccc4[nH]3)n(C)c2)CC1 [Compound A-52],+++ (MIC ≦ 4 μg/mL),+ (12 ≦ MIC ≦ 32 μg/mL),+++ (MIC ≦ 4 μg/mL),+++ (MIC ≦ 4 μg/mL),+++ (MIC ≦ 4 μg/mL),+++ (MIC ≦ 4 μg/mL),+++ (MIC ≦ 4 μg/mL),,,
Cn1cc(NC(=O)c2cc(NC(=O)c3sccc3Cl)cn2CCC[n+]2ccccc2)cc1-c1nc2ncccc2[nH]1 [Compound A-62],>32 µg/mL,>32 µg/mL,>32 µg/mL,>32 µg/mL,+ (12 ≦ MIC ≦ 32 μg/mL),+ (12 ≦ MIC ≦ 32 μg/mL),+ (12 ≦ MIC ≦ 32 μg/mL),,,
Cn1cc(NC(=O)c2cc3ccccc3cn2)cc1C(=O)Nc1cc(-c2nc3ccc(OC(=O)CCN4CCOCC4)cc3[nH]2)n(C)c1 [Compound A-9],+++ (MIC ≦ 4 μg/mL),>32 µg/mL,+++ (MIC ≦ 4 μg/mL),+++ (MIC ≦ 4 μg/mL),+++ (MIC ≦ 4 μg/mL),+++ (MIC ≦ 4 μg/mL),+++ (MIC ≦ 4 μg/mL),,,
Cn1cc(NC(=O)c2cc(NC(=O)c3ccc(Cl)cc3F)cn2CCCN(CCO)CCO)cc1-c1nc2cccnc2[nH]1 [Compound A-44],+ (12 ≦ MIC ≦ 32 μg/mL),>32 µg/mL,++ (4 < MIC < 12 μg/mL),++ (4 < MIC < 12 μg/mL),+++ (MIC ≦ 4 μg/mL),+++ (MIC ≦ 4 μg/mL),+++ (MIC ≦ 4 μg/mL),,,
CN(C)CCCn1cc(NC(=O)c2ccc(F)cc2F)cc1C(=O)Nc1cc(-c2nc3ncccc3[nH]2)n(C)c1 [Compound A-17],+++ (MIC ≦ 4 μg/mL),>32 µg/mL,+++ (MIC ≦ 4 μg/mL),+++ (MIC ≦ 4 μg/mL),+++ (MIC ≦ 4 μg/mL),+++ (MIC ≦ 4 μg/mL),+++ (MIC ≦ 4 μg/mL),,,
Cn1cc(NC(=O)c2cc(NC(=O)c3ccc(Cl)cc3F)cn2CCCN2CCC(O)CC2)cc1-c1nc2ccccc2[nH]1 [Compound A-34],+++ (MIC ≦ 4 μg/mL),+ (12 ≦ MIC ≦ 32 μg/mL),+++ (MIC ≦ 4 μg/mL),+++ (MIC ≦ 4 μg/mL),+++ (MIC ≦ 4 μg/mL),+++ (MIC ≦ 4 μg/mL),+++ (MIC ≦ 4 μg/mL),,,
